{"source": "the supplement of paper PMC11208160"}
{"assay": "recombinant barcode read abundance after kanamycin selection (control-corrected) (log10(CPM+1)); higher = more efficient recombination; sequences stand for … in AGTGCAGAGAAAATCGGCCAGTTTTCTCTGCCTGCAGTCCGCATGCCGT…AGATTTATGCAGCGGACTGCCTTTCTCCCAAAGTGATAAACCGGACAGTATCATGGACCGGTTTTCCCGGTAATCCGTATTTGCAAGGTTGGTTTCACT; site = the 11-nt target", "how_it_was_run": "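Duplicate cultures were plated either on chloramphenicol/ampicillin LB agar, serving as control, or on chloramphenicol/ampicillin/kanamycin with 0.1 mM IPTG. These came from a pooled E. coli library co-electroporated with a donor plasmid, each member pairing a target with an IS621 bridge RNA target-binding loop. Recombination efficiency equals averaged, control-corrected counts per million of recombinant-junction barcodes. It is listed as log10(CPM+1).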"}
{"sequence": "CAGGAACCTTGGGTTCTAACCTGTTGCCT (site TAGGAACCTAG)", "recombinant barcode read abundance (log10)": 0.216}
{"sequence": "GTACGGCCTTGGGTTCTAACCTGTTGCCT (site GTACAGCCTAG)", "recombinant barcode read abundance (log10)": 0.453}
{"sequence": "CTAGTGACTTGGGTTCTAACCTGTTGCGC (site CTAGTGACTGC)", "recombinant barcode read abundance (log10)": 2.12}
{"sequence": "GGTCGGGCTTGGGTTCTAACCTGTTGCCT (site GGTCGTGCTAG)", "recombinant barcode read abundance (log10)": 0.0723}
{"sequence": "TGCTAGGCTTGGGTTCTAACCTGTTGCCT (site TGCTAGGCTAG)", "recombinant barcode read abundance (log10)": 0.0609}
{"sequence": "TAGTCCTCTTGGGTTCTAACCTGTTGCTT (site TAGTCCTCTTA)", "recombinant barcode read abundance (log10)": 0.0542}
{"sequence": "CAGAAGCCTTGGGTTCTAACCTGTTGCCT (site AAGAAGCCTAG)", "recombinant barcode read abundance (log10)": 0.661}
{"sequence": "CGACGTCCTTGGGTTCTAACCTGTTGCGG (site CGACGTCCTCC)", "recombinant barcode read abundance (log10)": 1.74}
{"sequence": "AGGGACCCTTGGGTTCTAACCTGTTGCCT (site TCTTGGACTGT)", "recombinant barcode read abundance (log10)": 0.0407}
{"sequence": "ATCCGCTCTTGGGTTCTAACCTGTTGCCT (site GTCCGCTCTAG)", "recombinant barcode read abundance (log10)": 0.0221}
{"sequence": "AAGTGGACTTGGGTTCTAACCTGTTGCCT (site AAGTGGACTAG)", "recombinant barcode read abundance (log10)": 1.93}
{"sequence": "CAAACTCCTTGGGTTCTAACCTGTTGCGT (site CAAACTCCTAA)", "recombinant barcode read abundance (log10)": 0.124}
{"sequence": "TGCTGTGCTTGGGTTCTAACCTGTTGCCT (site TGCTGTACTAG)", "recombinant barcode read abundance (log10)": 0.0329}
{"sequence": "ACGGGTCCTTGGGTTCTAACCTGTTGCAG (site GGCAAGGCTAG)", "recombinant barcode read abundance (log10)": 0.0641}
{"sequence": "GAGATCCCTTGGGTTCTAACCTGTTGCCA (site GAGATCCCTTG)", "recombinant barcode read abundance (log10)": 1.22}
{"sequence": "TACCGAGCTTGGGTTCTAACCTGTTGCTG (site CCTGTCACTTG)", "recombinant barcode read abundance (log10)": 0.377}
{"sequence": "TGTAATCCTTGGGTTCTAACCTGTTGCCT (site TGTAATGCTAG)", "recombinant barcode read abundance (log10)": 0.032}
{"sequence": "TGAGACACTTGGGTTCTAACCTGTTGCTG (site TGAGACACTCA)", "recombinant barcode read abundance (log10)": 2.68}
{"sequence": "TACAACACTTGGGTTCTAACCTGTTGCGT (site TACAACACTAC)", "recombinant barcode read abundance (log10)": 1.71}
{"sequence": "AGGTATGCTTGGGTTCTAACCTGTTGCCT (site AGGTATGCTAG)", "recombinant barcode read abundance (log10)": 1.35}
{"sequence": "TTGACGACTTGGGTTCTAACCTGTTGCCA (site TTGACGACTTG)", "recombinant barcode read abundance (log10)": 0.36}
{"sequence": "CTAGGATCTTGGGTTCTAACCTGTTGCCA (site CTAGGATCTAT)", "recombinant barcode read abundance (log10)": 0.844}
{"sequence": "ACGTCGTCTTGGGTTCTAACCTGTTGCCT (site ATGTCGTCTAG)", "recombinant barcode read abundance (log10)": 0.0865}
{"sequence": "ACCCTCCCTTGGGTTCTAACCTGTTGCTA (site ACTCTACCTTA)", "recombinant barcode read abundance (log10)": 0.136}
{"sequence": "GAGTGCTCTTGGGTTCTAACCTGTTGCGT (site GAGTGCTCTAC)", "recombinant barcode read abundance (log10)": 2.29}
{"sequence": "GAGTTCCCTTGGGTTCTAACCTGTTGCCC (site GAGTTCCCTGG)", "recombinant barcode read abundance (log10)": 1.54}
{"sequence": "CAGAGGCCTTGGGTTCTAACCTGTTGCCT (site CAGAGGCCTAG)", "recombinant barcode read abundance (log10)": 0.224}
{"sequence": "GCCGAAACTTGGGTTCTAACCTGTTGCCT (site GCCGAGACTAG)", "recombinant barcode read abundance (log10)": 0.052}
{"sequence": "CCAAGCGCTTGGGTTCTAACCTGTTGCCT (site CCAAGCTCTAG)", "recombinant barcode read abundance (log10)": 0.209}
{"sequence": "GAGTAGTCTTGGGTTCTAACCTGTTGCCT (site GAGGAGTCTAG)", "recombinant barcode read abundance (log10)": 0.00957}
{"sequence": "GCGGGGTCTTGGGTTCTAACCTGTTGCTT (site GCCGGGTCTAA)", "recombinant barcode read abundance (log10)": 0.124}
{"sequence": "ATTTGCCCTTGGGTTCTAACCTGTTGCCT (site ACTTGCCCTAG)", "recombinant barcode read abundance (log10)": 0.0987}
{"sequence": "AATTCGACTTGGGTTCTAACCTGTTGCCT (site AATTCGACTAG)", "recombinant barcode read abundance (log10)": 0.399}
{"sequence": "GCAGGTACTTGGGTTCTAACCTGTTGCCT (site ACAGGTACTAG)", "recombinant barcode read abundance (log10)": 0.508}
{"sequence": "GGCGTAGCTTGGGTTCTAACCTGTTGCCT (site GGCGTAGCTAG)", "recombinant barcode read abundance (log10)": 2.37}
{"sequence": "CGCCCTACTTGGGTTCTAACCTGTTGCCT (site CGACCTGCTAG)", "recombinant barcode read abundance (log10)": 0.236}
{"sequence": "TAGAAGTCTTGGGTTCTAACCTGTTGCTG (site AAGATGTCTCA)", "recombinant barcode read abundance (log10)": 0.122}
{"sequence": "GCAGGTACTTGGGTTCTAACCTGTTGCCT (site TCAGGTACTAG)", "recombinant barcode read abundance (log10)": 0.466}
{"sequence": "GCCGAGTCTTGGGTTCTAACCTGTTGCAC (site GCCGAGTCTGT)", "recombinant barcode read abundance (log10)": 1.25}
{"sequence": "ATCGGTCCTTGGGTTCTAACCTGTTGCCT (site ATCGGTCCTAG)", "recombinant barcode read abundance (log10)": 1.29}
{"sequence": "GTCAAGACTTGGGTTCTAACCTGTTGCCA (site GTCAAGACTCG)", "recombinant barcode read abundance (log10)": 0.3}
{"sequence": "CACATCACTTGGGTTCTAACCTGTTGCCT (site CACAGCACTAG)", "recombinant barcode read abundance (log10)": 0.0683}
{"sequence": "TAGTGTTCTTGGGTTCTAACCTGTTGCCT (site TAGTGTACTAG)", "recombinant barcode read abundance (log10)": 0.104}
{"sequence": "CCGGTGACTTGGGTTCTAACCTGTTGCCT (site ACGGTGACTAG)", "recombinant barcode read abundance (log10)": 0.0889}
{"sequence": "ATCTTAACTTGGGTTCTAACCTGTTGCCT (site ATCTTAACTAG)", "recombinant barcode read abundance (log10)": 0.183}
{"sequence": "AGGTCTACTTGGGTTCTAACCTGTTGCTT (site GAACGCTCTTG)", "recombinant barcode read abundance (log10)": 0.171}
{"sequence": "AGACCTCCTTGGGTTCTAACCTGTTGCTT (site AGACCTCCTAA)", "recombinant barcode read abundance (log10)": 1.39}
{"sequence": "TACCCTACTTGGGTTCTAACCTGTTGCTA (site TACCCTACTTA)", "recombinant barcode read abundance (log10)": 0.736}
{"sequence": "TAGAACTCTTGGGTTCTAACCTGTTGCCG (site TAGAACTCTAG)", "recombinant barcode read abundance (log10)": 0.242}
{"sequence": "GCACCACCTTGGGTTCTAACCTGTTGCCT (site GCACCACCTAG)", "recombinant barcode read abundance (log10)": 1.06}
{"sequence": "AAGATATCTTGGGTTCTAACCTGTTGCCT (site ATGATATCTAG)", "recombinant barcode read abundance (log10)": 0.0647}
{"sequence": "CTAAGATCTTGGGTTCTAACCTGTTGCCT (site CCAAGATCTAG)", "recombinant barcode read abundance (log10)": 0.119}
{"sequence": "ACCCAAACTTGGGTTCTAACCTGTTGCCT (site ACCCAAACTAG)", "recombinant barcode read abundance (log10)": 1.08}
{"sequence": "GGCCGGCCTTGGGTTCTAACCTGTTGCCT (site GGCCGGACTAG)", "recombinant barcode read abundance (log10)": 0.0681}
{"sequence": "TCGCTACCTTGGGTTCTAACCTGTTGCCT (site TGACTACCTAG)", "recombinant barcode read abundance (log10)": 0.157}
{"sequence": "CGGGACACTTGGGTTCTAACCTGTTGCGG (site CGGAACACTCC)", "recombinant barcode read abundance (log10)": 2.07}
{"sequence": "TATGACGCTTGGGTTCTAACCTGTTGCCT (site TAAGACGCTAG)", "recombinant barcode read abundance (log10)": 0.261}
{"sequence": "TATTCTCCTTGGGTTCTAACCTGTTGCCT (site TATTCTCCTAA)", "recombinant barcode read abundance (log10)": 0.212}
{"sequence": "AGCTCGTCTTGGGTTCTAACCTGTTGCGG (site AGCTCGTCTCC)", "recombinant barcode read abundance (log10)": 0.448}
{"sequence": "CTAACTGCTTGGGTTCTAACCTGTTGCGG (site CTAACTGCTCC)", "recombinant barcode read abundance (log10)": 0.633}
{"sequence": "CTAGGAGCTTGGGTTCTAACCTGTTGCTG (site CTAGGAGCTTA)", "recombinant barcode read abundance (log10)": 0.073}
{"sequence": "CGTCACCCTTGGGTTCTAACCTGTTGCCT (site CGTCACCCTAG)", "recombinant barcode read abundance (log10)": 0.173}
{"sequence": "CACTTATCTTGGGTTCTAACCTGTTGCCT (site CACTTAGCTAG)", "recombinant barcode read abundance (log10)": 0.0751}
{"sequence": "CACATCACTTGGGTTCTAACCTGTTGCCT (site CACATCACTAG)", "recombinant barcode read abundance (log10)": 0.704}
{"sequence": "AAGGTACCTTGGGTTCTAACCTGTTGCGG (site AAGGTACCTCC)", "recombinant barcode read abundance (log10)": 2.69}
{"sequence": "GGCCGGTCTTGGGTTCTAACCTGTTGCCT (site GGCCGGGCTAG)", "recombinant barcode read abundance (log10)": 0.0483}
{"sequence": "TACCTTACTTGGGTTCTAACCTGTTGCAG (site AGAAGATCTAG)", "recombinant barcode read abundance (log10)": 0.17}
{"sequence": "GCCGAGGCTTGGGTTCTAACCTGTTGCTG (site GCCGAGGCTCA)", "recombinant barcode read abundance (log10)": 0.439}
{"sequence": "CGTTCATCTTGGGTTCTAACCTGTTGCCT (site CGGTCATCTAG)", "recombinant barcode read abundance (log10)": 0.0446}
{"sequence": "CCTGGCACTTGGGTTCTAACCTGTTGCGA (site CCTTGCACTTC)", "recombinant barcode read abundance (log10)": 0.0559}
{"sequence": "CTTGGAACTTGGGTTCTAACCTGTTGCCT (site CTTGGAACTAG)", "recombinant barcode read abundance (log10)": 0.224}
{"sequence": "ATGATTCCTTGGGTTCTAACCTGTTGCCT (site AAGATTCCTAG)", "recombinant barcode read abundance (log10)": 0}
{"sequence": "CCGTGAACTTGGGTTCTAACCTGTTGCCT (site CCGTGAACTAG)", "recombinant barcode read abundance (log10)": 0.275}
{"sequence": "ATTACTTCTTGGGTTCTAACCTGTTGCTT (site ATTACTTCTAA)", "recombinant barcode read abundance (log10)": 0.282}
{"sequence": "CAGTTCGCTTGGGTTCTAACCTGTTGCCT (site CAGTTCGCTAG)", "recombinant barcode read abundance (log10)": 1.6}
{"sequence": "ATATGAGCTTGGGTTCTAACCTGTTGCCA (site ATATGAGCTTG)", "recombinant barcode read abundance (log10)": 0.884}
{"sequence": "GGGGCTTCTTGGGTTCTAACCTGTTGCAT (site GGGCCTTCTAT)", "recombinant barcode read abundance (log10)": 0.0416}
{"sequence": "TCGATCCCTTGGGTTCTAACCTGTTGCCT (site TCCATCCCTAG)", "recombinant barcode read abundance (log10)": 0.144}
{"sequence": "AGCCTTACTTGGGTTCTAACCTGTTGCCT (site ATCCTTACTAG)", "recombinant barcode read abundance (log10)": 0.122}
{"sequence": "CTAGTGACTTGGGTTCTAACCTGTTGCGC (site CTAGTGACTTC)", "recombinant barcode read abundance (log10)": 0.127}
{"sequence": "ATCGGACCTTGGGTTCTAACCTGTTGCTG (site TATAATGCTAC)", "recombinant barcode read abundance (log10)": 0.148}
{"sequence": "TCGCGCTCTTGGGTTCTAACCTGTTGCTT (site TCGCGCTCTAA)", "recombinant barcode read abundance (log10)": 0.419}
{"sequence": "TCCCGGACTTGGGTTCTAACCTGTTGCCT (site TCACGGACTAG)", "recombinant barcode read abundance (log10)": 0.212}
{"sequence": "TAGACTACTTGGGTTCTAACCTGTTGCTC (site TAGACTACTCA)", "recombinant barcode read abundance (log10)": 0.082}
{"sequence": "TAGACTACTTGGGTTCTAACCTGTTGCTG (site TAGACTACTCA)", "recombinant barcode read abundance (log10)": 0.609}
{"sequence": "CGCGATCCTTGGGTTCTAACCTGTTGCCT (site CGCGCTCCTAG)", "recombinant barcode read abundance (log10)": 0.0201}
